Experimental data taken from paper PMC12691742, “Anti-Cancer Outcome of Glucocorticoid Receptor Transrepression by Synephrine Derivatives in Hematological Malignancies” (International Journal of Molecular Sciences, 2025).

What was measured:
[1] = system: P388 murine lymphoma; assay: Transplantable P388 murine lymphoma model; assay type: in vivo, mice; details: P388 model; Dex 1 mg/kg, 10S-E2 10 mg/kg i.p. 3 times per week
Method: Figure 5 Pro-apoptotic and anti-cancer effects of synephrine derivatives in vitro and in vivo. (A) Effect of 4S-C2, 8S-E3, 10S-E2, and 13S-G2 on cell cycle progression in K562 and Granta cells after 24 h of incubation. The cells were fixed with ethanol, stained with propidium iodide, and analyzed using flow cytometry. Statistically significant difference compared to control: *—p < 0.05, **—p < 0.01 (n = 3). (B) In vivo anti-cancer activity was evaluated using the transplantable P388 murine lymphoma model. […] Tumor nodule size was measured twice a week using digital calipers. Statistically significant differences compared to the control: * p < 0.05, ** p < 0.01.
The protocol for the experiment was approved by the local N.N. Blokhin National Medical Research Center Ethics Committee and corresponded to the guidelines for the welfare and use of animals in cancer research adopted by The United Kingdom Coordinating Committee on Cancer Prevention Research. P388 cells were injected i.p. into 5-week-old female DBA/2 mice (“Stolbovaya Farm”, Stolbovaya, Russia). After 15 days, the cells were collected from the peritoneum, washed, and resuspended in PBS. For the experiments, 0.1 mL containing 2 million cells obtained from the ascites was inoculated s.c. in 5-week-old female BDF1 mice (“Stolbovaya Farm”, Stolbovaya, Russia). […] Body weight was recorded twice a week for toxicity determination. Tumor size was measured three times per week using digital calipers.

[2] = system: NF-kB activity in Granta cells; assay: NF-kB.Luc reporter assay in Granta cells; assay type: cell-based; details: 5 h, 10S-E2 1 µM
Method: We analyzed GR TR function using an NF-kB.Luc reporter assay with the irritating inflammatory agent phorbol 13-acetate 12-myristate (TPA) as an inducer of NF-kB signaling and positive control.
(§1) Figure 4 Effects of synephrine derivatives on GR transrepression in Granta lymphoma and K562 leukemia cells. (A) K562 and Granta cells stably infected with the lentiviruses bearing the NF-kB luciferase reporter. Cells were incubated for 5 h with the solvent (control), TPA (5 ng/mL), 4S-C2 (10 µM), 8S-E3 (10 µM), 10S-E2 (1 µM), or 13S-G2 (1 µM). Luciferase activity was determined as described in the Materials and Methods section. (B) IL1-α and IL6 mRNA expression in K562 and Granta cells. Q-PCR results were normalized to the expression of the housekeeping gene RPL27 and are presented as the fold change compared to the control. The mean ± SD was calculated for three individual samples/condition (n = 3). Statistically significant differences compared to the control: * p < 0.05, ** p < 0.01.
Lentiviral stocks were generated using the lentiviral expression vector NF-kB. Luc was encoded with Firefly Luciferase reporters with the NF-kB-responsive promoter of minimal CMV promoter as a control (“System Bioscience”, Moutain View, CA, USA), along with packing plasmids GAG, REV, and VSVg. HEK-293T cells were transfected with the abovementioned plasmids using TurboFect reagent (“Thermo Scientific”, Waltham, MA, USA) according to the manufacturer’s protocol. […] The infection efficiency exceeded 90% (tracked by GFP fluorescence).
Cells (10^4 cells/well in a 24-well plate), stably expressing Firefly Luciferase under the NF-kB promoter, were treated for 5 h with TPA (12-O-tetradecanoylphorbol-13-acetate, Boston, MA, USA, 10 ng/mL), 4S-C2 (10 µM), 8S-E3 (10 µM), 10S-E2 (1 µM), 13S-G2 (1 µM), or the vehicle. Luciferase activity was measured as described using a commercial Luciferase Assay (“Promega”, Madison, WI, USA) and Luminometer TD 20/20 (“Turner Design Instruments”, San Jose, CA, USA). […]

[3] = system: FKBP51, GILZ, DDIT4 mRNA expression in K562 and Granta cells; assay: Q-PCR of GR transactivation marker genes; assay type: cell-based; details: 4 h (FKBP51, GILZ) or 24 h (DDIT4); Dex 10 µM, 10S-E2 0.1 µM; vs control
From the text: Q-PCR results were confirmed by Western blot analysis of the level of GR phosphorylated by Ser211, known as a crucial protein modification for GR TA realization because of its binding to short cysteine-rich fragments of the coactivator CREB-binding protein [41].
Figure 3 Effects of synephrine derivatives on GR transactivation in Granta lymphoma and K562 leukemia cells. (A) Q-PCR analysis of FKBP51, GILZ, and DDIT4 mRNA expression in K562 and Granta cells. […] The Q-PCR results were normalized to the expression of the housekeeping gene RPL27 and are presented as fold changes compared to the control. The mean ± SD was calculated for three individual samples/condition (n = 3). Statistically significant differences compared to the control: * p < 0.05, ** p < 0.01. (B) The levels of the nuclear fraction of phospho-GR (Ser211) were determined using Western blot analysis (n = 3; characteristic images are presented in the figure). Histone H3 was used as a loading control.
(§2) Total RNA isolation from cell cultures and murine bones, reverse transcription, and Q-PCR were performed as described in [36]. Primers were designed using NCBI Primer-BLAST https://www.ncbi.nlm.nih.gov/tools/primer-blast/, accessed on 25 August 2025 (Supplementary Table S1). Results were normalized to the expression of the housekeeping RPL27 и Rpl27 genes. The experiments were performed in triplicate.

[4] = system: IL1-α and IL6 mRNA expression in K562 and Granta cells; assay: Q-PCR of GR transrepression marker genes; assay type: cell-based
Method: as §1, §2

CCCCCCNCC(O)c1ccc(OCc2ccccc2)cc1 (stereo not drawn) [10S-E2, 1-[4-(benzyloxy)phenyl]-2-(hexylamino)ethanol]
animal body weight change vs control [1]: no statisticall y si gnificant differences | effect on NF-kB activity ([2]; 4S-C2 10 µM): not statistically significant | inhibition of luciferase activity (NF-kB) [2]: 15% | expression of TA marker genes FKBP51, GILZ, DDIT4 [3]: did not increase the expression | expression of GR TR marker genes IL1-α and IL6 [4]: downregulation
